From patent US5103014A, “Certain 3,3'-[[[(2-phenyl-4-thiazolyl)methoxy]phenyl]methylene]dithiobis-propano ic acid derivatives” (American Home Products Corporation, priority 1990, dated 1992)
Where two headings read alike, the source gives them in different places. Values belong to the molecule of their own block, whether it stands above or below them.

What was measured:
[1] = tested on: TxB2 synthesis (cyclooxygenase); test: Inhibition of synthesis of cyclooxygenase oxidation product TxB2 (rat polymorphonuclear leukocytes); assay type: cell-based; conditions: Leukocyte, rat PMN; for IC50: A23187 10 μM, read-out: 50% Inhibitory Concentration (IC50)
Description: (§1) Peritoneal PMN are obtained from female Wistar rats (150-250 g) that received an i.p. injection of 6% glycogen (10 ml). After 24 hours, rats are killed by CO2 asphyxiation and peritoneal cells are harvested by peritoneal lavage using Ca^++ and Mg^++ free Hanks' balanced salt solution (HBSS). The peritoneal exudate is centrifuged at 400 g for 10 minutes. After centrifugation, the lavaged fluid is removed and the cell pellet is resuspended in HBSS containing Ca^++ and Mg^++ and 10 mM L-cysteine at a concentration of 2×10^7 cells/ml. To 1 ml portions of cell suspension, test drugs or vehicle are added and incubated at 37° C. for 10 minutes. Following this preincubation, the calcium ionophore (10 μM), A23187, is added together with 0.5 μCi [^14 C] arachidonic acid and further incubated for 10 minutes. The reaction is stopped by the addition of ice cold water (3 ml) and acidification to pH 3.5. Lipoxygenase products are then extracted twice into diethyl ether. The pooled ether extracts are evaporated to dryness under nitrogen and the residue is redissolved in a small volume of methanol and spotted on aluminum backed pre-coated thin layer chromatographic plates. The samples are then co-chromatographed with authentic reference 5,12-diHETE in the solvent system-hexane:ether:acetic acid (50:50:3). After chromatography, the areas associated with 5,12-diHETE standard are identified by autoradiography, cut out and quantitated by liquid scintillation.
The procedure of Example 17 is also employed for the determination of the ability of the compounds of the invention to inhibit the synthesis of the arachidonic acid cyclooxygenase oxidation product TxB2.
In this assay, the procedure of Example 17 is carried out as described. However, in order to determine cyclooxygenase activity, the samples are cochromatographed with authentic reference TxB2 in the solvent system ethyl acetate:formic acid (80:1) and the upper phase of ethyl acetate:isoctane:acetic acid:water (110:50:20:100). After chromatography, the areas associated with TxB2 standard are identified by autoradiography, cut out and quantitated by liquid scintillation techniques.
The results are calculated as in Example 12 and presented below: […]

[2] = tested on: LTD4 induced bronchoconstriction; test: In vivo inhibition of LTD4 induced bronchospasm in guinea pigs (exogenously administered leukotrienes); parameters: species or system guinea pig; conditions: 10 minutes before induction of bronchospasm (LTD4); for inhibition in vivo at 25 mg/kg: intraduodenal, intraduodenally
[3] = tested on: 5,12-diHETE synthesis by rat glycogen-elicited polymorphonuclear leukocytes; test: Inhibition of 5,12-diHETE synthesis by rat glycogen-elicited polymorphonuclear leukocytes; assay type: cell-based; conditions: Leukocyte, rat PMN; for IC50: A23187 10 μM, read-out: 50% Inhibitory Concentration (IC50)
Description: This is especially true with respect to 5,12-diHETE, which is also denoted as LTB4 [see Ford-Hitchinson, J. Roy. Soc. Med., 74, 831 (1981)]. The assay of this Example measures the ability of the compounds of the invention to inhibit the synthesis of 5,12-diHETE by rat glycogen-elicited polymorphonuclear leukocytes.
as §1
Results are expressed as the 50% Inhibitory concentration, or as percent inhibition at a given.

[4] = tested on: acute inflammatory response (carrageenan paw edema); test: Rat carrageenan paw edema assay; assay type: in vivo; conditions: po, 50 mg/kg peroral, 1 hour prior to carrageenan, edema at 3 hours
Description: The compounds of the invention are tested in the rat carrageenan paw edema assay to determine their ability to inhibit the acute inflammatory response. 140-180 gm male Sprague-Dawley rats, in groups of 6 animals, are injected subcutaneously in the right paw with 0.1 ml of 1% carrageenan at zero time. Mercury plethysmographic readings (ml) of the paw are made at zero time and 3 hours later. Test compounds are suspended or dissolved in 0.5% methylcellulose and given perorally 1 hour prior to carrageenan administration. The increase in paw volume (edema in ml.) produced by the carrageenan is measured. […] Unpaired Student's t-test is used to determine statistical significance.

[5] = tested on: ovalbumin induced bronchospasm; test: In vivo inhibition of ovalbumin induced bronchospasm in sensitized guinea pigs (endogenous mediators); parameters: species or system guinea pig; conditions: 25 mg/kg, intragastrically, 10 minutes before intravenous ovalbumin challenge
Description: The assay of this Example measures the in vivo ability of the compounds of the invention to inhibit the bronchospasm induced in guinea pigs by endogenous mediators of the bronchoconstriction.
Male Hartley strain guinea pigs weighing 250-350 g are sensitized to chicken ovalbumin (OA) (10 mg i.p.) on days 1 and 3 and used starting on day 26. The animals are anesthetized with pentobarbital sodium (50 mg/kg, i.p.), bilateral vagotomy is performed, and the jugular vein is cannulated for injection of drugs and the carotid artery for monitoring blood pressure. The trachea is cannulated for artificial ventilation by miniature Starling pump and for indirect measurement of respiratory volume changes as described, infra. Succinylcholine (2 mg/kg, i.v.) is administered to arrest spontaneous respiration. […]
Respiratory volume changes are determined by a calibrated piston whose travel is recorded, via a linear transducer, on a Beckman Dynograph recorder. Maximal bronchoconstrictor volume is determined by clamping off the trachea at the end of the experiment. Overflow volumes at minutes 1, 3 and 5 are obtained from the recorded charts.
Area under the volume overflow curve (AUC) is estimated, using the overflow values at 1, 3 and 5 minutes, and expressed as a percentage of the maximal overflow AUC (equation 1): [formula] […]

[6] = molecular target: T1, LTD4 (contraction of isolated guinea pig trachea) (Cavia porcellus, UniProt Q2NNR5); test: Isolated guinea pig trachea assay, LTD4 antagonist activity; assay type: cell-based
T1 construct: from tissue; host or cells: isolated tracheal rings of male Hartley guinea pigs
T1 sequence (Q2NNR5 1-340): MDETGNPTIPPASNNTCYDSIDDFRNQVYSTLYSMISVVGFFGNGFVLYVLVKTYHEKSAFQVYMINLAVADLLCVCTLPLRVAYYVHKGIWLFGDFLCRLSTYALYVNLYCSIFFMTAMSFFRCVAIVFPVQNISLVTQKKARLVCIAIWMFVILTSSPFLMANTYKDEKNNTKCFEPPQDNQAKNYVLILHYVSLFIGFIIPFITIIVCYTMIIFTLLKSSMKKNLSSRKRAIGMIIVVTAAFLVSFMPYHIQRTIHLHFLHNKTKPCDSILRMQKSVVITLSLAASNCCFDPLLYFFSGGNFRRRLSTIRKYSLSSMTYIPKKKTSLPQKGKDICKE
Description: The compounds of the invention are tested in the isolated guinea pig trachea assay to assess their LTD4 antagonist activity. Male Hartley guinea pigs (350-400 g) are euthanized by a blow to the head, the neck is opened and the trachea removed. The trachea is maintained in aerated physiological salt solution, cleared of connective tissue and fat and cut into rings approximately 2 mm in width (usually containing two cartilaginous segments per ring). Two pieces of silk suture are then passed through the lumen of the tracheal ring and are tied around the cartilage, one on each side of the trachealis muscle. The tracheal ring is suspended between a glass hook and a force displacement transducer in a 10 ml organ bath for measurement of isometric tension. Tissues are maintained at 37° C. in aerated (95% O2 /5% CO2) physiological salt solution of the following composition: […] The tracheal rings are maintained at 2 g resting tension and equilibrated for 45 minutes (with frequent washing and readjustment of resting tension). The tracheal rings are first contracted by the addition of carbachol (3×10^-6 M), to determine tissue responsiveness and establish a reference contraction. On attainment of a stable level of contraction (approximately 30 minutes), the tissues are washed several times until baseline tension has been restored and then re-equilibrated for 30 minutes. The tissues are then incubated for 45 minutes with a test antagonist (either 1×10^-6 M or 1×10^-5 M) or 10 μl of an appropriate solvent control (control, non-treated). One tissue in each group serves as the control. Twenty minutes prior to the construction of the LTD4 cumulative concentration-response curve, L-[…]×10^-2 M final bath concentration) is added to inhibit bioconversion of LTD4 to LTE4. Only one LTD4 concentration-response curve is constructed in each tissue. All responses to LTD4 are calculated as a percentage of the reference contraction to carbachol. LTD4 antagonist activity is determined by comparison of the concentration response curves of LTD4 in the presence and absence of antagonist. Assessment of the relative rightward shift of the antagonist treated curve relative to the solvent (control) treated tissue is calculated as a concentration ratio (Eq. A) and used in subsequent calculations to derive an antagonist pKB value (Eqs B&C). In the event that the maximum response to LTD4 is depressed, the EC50 for that particular curve is determined, an "apparent" pKB reported, and the compound reported as "not-competitive."

[7] = molecular target: T1, LTD4 (contraction of isolated guinea pig trachea); conditions: literature value, reference (1); cited from earlier work
[8] = antagonist concentration 1 × 10^-6 M, read-out: pKB ± S.E. (converted)
[9] = antagonist concentration 1 × 10^-5 M, read-out: pKB ± S.E. (converted)
[10] = reference compounds, LTD4 concentration-response curve, read-out: pKB (converted)

Kb [6, 10]: 0.126 µM
SMILES: CCCc1c(OCCCCc2nn[nH]n2)ccc(C(C)=O)c1O [LY-171,883, reference compound]
pKB (Reference) [7]: 6.65

IC50 [1]: 7.1 µM
IC50 [3]: 5.2 µM
SMILES: O=S(=O)(Nc1cccc(OCc2csc(-c3ccc(Cl)cc3)n2)c1)C(F)(F)F [Example 9A, 1,1,1-Trifluoro-N-[3-[[2-(4-chlorophenyl)-4-thiazolyl]methoxy]phenyl]methanesulfonamide]
inhibition in vivo at 25 mg/kg ([2]; Cavia porcellus): 54%
inhibition in vivo at 50 mg/kg [4]: 60%

More lines, now with the values behind:

SMILES: O=S(=O)(Nc1cccc(OCc2csc(-c3ccc(F)cc3)n2)c1)C(F)(F)F [Example 9B, 1,1,1-Trifluoro-N-[3-[[2-(4-fluorophenyl)-4-thiazolyl]methoxy]phenyl]methanesulfonamide]
inhibition at 10 µM [1]: 32%
inhibition in vivo at 25 mg/kg ([2]; Cavia porcellus): 100%
inhibition in vivo at 10 mg/kg ([2]; Cavia porcellus, po, 10 mg/kg, intragastrically): 92%
inhibition at 10 µM [3]: 64%
inhibition in vivo at 50 mg/kg [4]: 55%

SMILES: O=S(=O)(Nc1cccc(OCc2csc(-c3ccccc3)n2)c1)C(F)(F)F [Example 3, 1,1,1-Trifluoro-N-[3-[(2-phenyl-4-thiazolyl)methoxy]phenyl]methanesulfonamide]
% Inhibition [5]: 10%
IC50 [1]: 1.7 µM
ED50 ([2]; Cavia porcellus, intragastrically, read-out: ED50): 2.4 mg/kg
ED50 ([2]; intragastrically): 3.0 mg/kg
IC50 [3]: 3.2 µM
inhibition in vivo at 50 mg/kg [4]: 51%

SMILES: COC(=O)CCSC(SCCC(=O)N(C)C)c1cccc(OCc2csc(-c3ccccc3)n2)c1 (centres unmarked) [Example 13, 3-[[[[3-(Dimethylamino)-3-oxopropyl]thio][[(2-phenyl-4-thiazolyl)methoxy]phenyl]methyl]thio]propanoic acid methyl ester]
Kb [6, 8]: 0.0447 µM

SMILES: O=C(O)CCSC(SCCC(=O)O)c1cccc(OCc2csc(-c3ccccc3)n2)c1 [Example 15, 3,3'-[[3-[(2-Phenyl-4-thiazolyl)methoxy]phenyl]methylene]dithiobis[propanoic acid]]
Kb [6, 9]: 0.912 µM

SMILES: COC(=O)CCSC(SCCC(=O)OC)c1cccc(OCc2csc(-c3ccccc3)n2)c1 [Example 12]
Kb [6, 9]: 0.724 µM

SMILES: O=S(=O)(Nc1cccc(OCc2ccc3ccccc3n2)c1)C(F)(F)F [Wy-48,252, reference compound]
Kb [6, 8]: 0.0832 µM
Kb [6, 10]: 0.0363 µM
pKB (Reference) [7]: 7.70

SMILES: Cc1ccc(S(=O)(=O)NC(=O)c2cccc(OCc3csc(-c4ccccc4)n3)c2)cc1 [Example 8, N-[(4-Methylphenyl)sulfonyl]-3-[(2-phenyl-4-thiazolyl)methoxy]benzamide]
inhibition at 10 µM [1]: 44%
inhibition in vivo at 25 mg/kg ([2]; Cavia porcellus): 62%
inhibition at 10 µM [3]: 55%
inhibition in vivo at 50 mg/kg [4]: 51%

SMILES: CN(C)C(=O)CCSC(SCCC(=O)O)c1cccc(OCc2csc(-c3ccccc3)n2)c1 (centres unmarked) [Example 16, 3-[[[[3-(Dimethylamino)-3-oxopropyl]thio][3-[(2-phenyl-4-thiazolyl)methoxy]phenyl]methyl]thio]propanoic acid]
Kb [6, 8]: 0.0724 µM

SMILES: CN(C)C(=O)CCSC(SCCC(=O)N(C)C)c1cccc(OCc2csc(-c3ccccc3)n2)c1 [Example 14, 3,3'-[[[3-[(2-Phenyl-4-thiazolyl)methoxy]phenyl]methylene]dithio]bis[N,N-dimethylpropanamide]]
Kb [6, 8]: 0.324 µM
